# Test results reported in patent publication US20150105252A1, “SUBSTITUTED PYRAZOLES AS HERBICIDES” (E I DU PONT DE NEMOURS AND COMPANY, priority 2013, published 2015).
# Columns and labels:
# bermudagrass = assay: Test C preemergence; format: in vivo, Cynodon dactylon
# Description: (§1) Seeds of plant species selected from blackgrass (Alopecurus myosuroides), ryegrass, Italian (Italian ryegrass, Lolium multiflorum), wheat (winter wheat, Triticum aestivum), galium (catchweed bedstraw, Galium aparine), corn (Zea mays), crabgrass, large (large crabgrass, Digitaria sanguinalis), foxtail, giant (giant foxtail, Setaria faberii), johnsongrass (Sorghum halepense), lambsquarters (Chenopodium album), morningglory (Ipomoea coccinea), nutsedge, yellow (yellow nutsedge, Cyperus esculentus), pigweed (redroot pigweed, Amaranthus retroflexus), ragweed (common ragweed, Ambrosia elation), soybean (Glycine max), barnyardgrass (Echinochloa crus-galli), oilseed rape (Brassica napus), waterhemp (common waterhemp, Amaranthus rudis), oat, wild (wild oat, Avena fatua), kochia (Kochia scoparia), Surinam grass (Brachiaria decumbens), foxtail, green (green foxtail, Setaria viridis), goosegrass (Eleusine indica), bromegrass, downy (downy bromegrass, Bromus tectorum), nightshade (eastern black nightshade, Solanum ptycanthum), cocklebur (common cocklebur, Xanthium strumarium), cupgrass, woolly (woolly cupgrass, Eriochloa villosa), bermudagrass (Cynodon dactylon), sunflower, (common oilseed sunflower, Helianthus annuus), Russian thistle (Salsola kali), and velvetleaf (Abutilon theophrasti) were planted into a blend of loam soil and sand and treated preemergence with test chemicals formulated in a non-phytotoxic solvent mixture which included a surfactant.
# (§2) At the same time, plants selected from these crop and weed species and also chickweed (common chickweed, Stellaria media), canarygrass (littleseed canarygrass, Phalaris minor), and deadnettle (henbit deadnettle, Lamium amplexicaule), were planted in pots containing Redi-Earth® planting medium (Scotts Company, 14111 Scottslawn Road, Marysville, Ohio 43041) comprising spaghnum peat moss, vermiculite, wetting agent and starter nutrients and treated with postemergence applications of test chemicals formulated in the same manner. Plants ranged in height from 2 to 18 cm (1- to 4-leaf stage) for postemergence treatments. Treated plants and controls were maintained in a greenhouse for 13 to 15 days, after which time all species were compared to controls and visually evaluated. Plant response ratings, summarized in Table C, are based on a scale of 0 to 100 where 0 is no effect and 100 is complete control. A dash (-) response means no test result.
# windgrass [1] = assay: Test C postemergence; format: in vivo, Apera spica-venti; conditions: 250 g ai/ha, scale 0 to 100 (0 no effect, 100 complete control)
# windgrass [2] = assay: Test C postemergence; format: in vivo, Apera spica-venti; conditions: 125 g ai/ha, scale 0 to 100, 0 no effect, 100 complete control
# cupgrass, woolly = assay: Test C preemergence; format: in vivo, Eriochloa villosa
# Description: as §1, §2
# oat, wild = assay: Test C preemergence; format: in vivo, Avena fatua
# Description: as §1, §2
# windgrass [3] = assay: Test C postemergence; format: in vivo, Apera spica-venti; conditions: 62 g ai/ha, scale 0 to 100
# hairy beggarticks = assay: Test F preemergence; format: in vivo, Bidens pilosa
# Description: (§3) Seeds of plant species selected from corn (Zea mays), soybean (Glycine max), velvetleaf (Abutilon theophrasti), lambsquarters (Chenopodium album), wild poinsettia (Euphorbia heterophylla), pigweed, palmer (palmer pigweed, Amaranthus palmeri), common waterhemp (Amaranthus rudis), surinam grass (Brachiaria decumbens), large crabgrass (Digitaria sanguinalis), crabgrass, Brazil (Brazilian crabgrass, Digitaria horizontalis), fall panicum (Panicum dichotomiflorum), giant foxtail (Setaria faberii), green foxtail (Setaria viridis), goosegrass (Eleusine indica), johnsongrass (Sorghum halepense), common ragweed (Ambrosia elation), barnyardgrass (Echinochloa crus-galli), southern sandbur (Cenchrus echinatus), arrowleaf sida (Sida rhombifolia), Italian ryegrass (Lolium multiflorum), dayflower, VA (Virginia (VA) dayflower, Commelina virginica), field bindweed (Convolvulus arvensis), cocklebur (common cocklebur, Xanthium strumarium), morningglory (Ipomoea coccinea), nightshade (eastern black nightshade, Solanum ptycanthum), kochia (Kochia scoparia), yellow nutsedge (Cyperus esculentus), and hairy beggarticks (Bidens pilosa), were planted into a silt loam soil and treated preemergence with test chemicals formulated in a non-phytotoxic solvent mixture which included a surfactant.
# (§4) At the same time, plants from these crop and weed species and also horseweed (Canada horseweed, Conyza canadensis), smartweed (ladysthumb smartweed, Polygonum persicaria), waterhemp_RES1, (ALS & Triazine resistant common waterhemp, Amaranthus rudis), and waterhemp_RES2, (ALS & HPPD resistant common waterhemp, Amaranthus rudis) were treated with postemergence applications of test chemicals formulated in the same manner. Plants ranged in height from 2 to 18 cm for postemergence treatments (1- to 4-leaf stage). Treated plants and controls were maintained in a greenhouse for 14 to 21 days, after which time all species were compared to controls and visually evaluated. Plant response ratings, summarized in Table F, are based on a scale of 0 to 100 where 0 is no effect and 100 is complete control. A dash (-) response means no test result.
# field bindweed = assay: Test F preemergence; format: in vivo, Convolvulus arvensis
# Description: as §3, §4
# kochia = assay: Test F preemergence; format: in vivo, Kochia scoparia
# Description: as §3, §4
# barnyardgrass = assay: Test F preemergence; format: in vivo, Echinochloa crus-galli
# Description: as §3, §4
# wild poinsettia = assay: Test F preemergence; format: in vivo, Euphorbia heterophylla
# Description: as §3, §4
# southern sandbur = assay: Test F preemergence; format: in vivo, Cenchrus echinatus
# Description: as §3, §4
# lambsquarters = assay: Test F preemergence; format: in vivo, Chenopodium album
# Description: as §3, §4
# goosegrass = assay: Test F preemergence; format: in vivo, Eleusine indica
# Description: as §3, §4
# [4] = preemergence, 31 g ai/ha, scale 0 to 100 (0 no effect, 100 complete control), 13 to 15 days
# [5] = preemergence, 62 g ai/ha, 13 to 15 days, scale 0 to 100, 0 = no effect, 100 = complete control
# [6] = preemergence, 125 g ai/ha, scale 0 to 100, 0 is no effect, 100 is complete control
# [7] = Preemergence, 31 g ai/ha, scale 0 to 100
# [8] = Preemergence, 62 g ai/ha, scale 0 to 100
# [9] = Preemergence, 125 g ai/ha, scale 0 to 100
# [10] = preemergence, 8 g ai/ha, scale 0 to 100, 100 is complete control
# [11] = preemergence, 16 g ai/ha, scale 0 to 100, 100 is complete control
# [12] = Preemergence, 250 g ai/ha, scale 0 to 100
# [13] = Preemergence, 16 g ai/ha, scale 0 to 100
structure (smiles),measurement,setting,value
CCONC(=O)c1cc(CC)n(Cc2cccc(OC(F)(F)F)c2)n1 [Compound 72],"Plant response rating (scale of 0 to 100), Bermudagrass","bermudagrass; Preemergence, 250 g ai/ha",100
same,Bermudagrass plant response rating,bermudagrass; [4],85
same,"Plant response rating, Bermudagrass",bermudagrass; [5],98
same,Bermudagrass plant response rating,bermudagrass; [6],98
same,"Plant response rating, Windgrass",windgrass [1],30
same,"Plant response rating, Windgrass",windgrass [2],25
same,"Plant response rating (scale of 0 to 100), Cupgrass, Woolly","cupgrass, woolly; Preemergence, 250 g ai/ha",65
same,"Cupgrass, Woolly plant response rating","cupgrass, woolly; [4]",10
same,"Plant response rating, Cupgrass, Woolly","cupgrass, woolly; [5]",45
same,"Cupgrass, Woolly plant response rating","cupgrass, woolly; [6]",45
same,"Plant response rating (scale of 0 to 100), Oat, Wild","oat, wild; Preemergence, 250 g ai/ha",85
same,"Oat, Wild plant response rating","oat, wild; [4]",30
same,"Plant response rating, Oat, Wild","oat, wild; [5]",60
same,"Oat, Wild plant response rating","oat, wild; [6]",80
same,Windgrass plant response rating,windgrass [3],20
CCc1cc(-c2ccc(C(F)(F)F)cc2)nn1Cc1ccnc(C(F)(F)F)c1 [Compound 110],"Plant response rating, Hairy Beggarticks",hairy beggarticks; [7],35
same,"Plant response rating, Hairy Beggarticks",hairy beggarticks; [8],30
same,"Plant response rating, Hairy Beggarticks",hairy beggarticks; [9],50
same,"Plant response rating, Hairy Beggarticks",hairy beggarticks; [10],50
same,"Plant response rating, Hairy Beggarticks",hairy beggarticks; [11],35
same,"Plant response rating, Field Bindweed",field bindweed; [7],30
same,"Plant response rating, Field Bindweed",field bindweed; [8],50
same,"Plant response rating, Field Bindweed",field bindweed; [9],90
same,"Plant response rating, Field Bindweed",field bindweed; [10],0
same,"Plant response rating, Field Bindweed",field bindweed; [11],10
same,"Plant response rating, Kochia",kochia; [7],70
same,"Plant response rating, Kochia",kochia; [8],80
same,"Plant response rating, Kochia",kochia; [9],90
same,"Plant response rating, Kochia",kochia; [10],20
same,"Plant response rating, Kochia",kochia; [11],25
same,"Plant response rating, Barnyardgrass",barnyardgrass; [7],0
same,"Plant response rating, Barnyardgrass",barnyardgrass; [8],10
same,"Plant response rating, Barnyardgrass",barnyardgrass; [9],35
same,"Plant response rating, Barnyardgrass",barnyardgrass; [10],0
same,"Plant response rating, Barnyardgrass",barnyardgrass; [11],0
same,"Plant response rating, Wild Poinsettia",wild poinsettia; [7],35
same,"Plant response rating, Wild Poinsettia",wild poinsettia; [8],50
same,"Plant response rating, Wild Poinsettia",wild poinsettia; [9],80
same,"Plant response rating, Wild Poinsettia",wild poinsettia; [10],25
same,"Plant response rating, Wild Poinsettia",wild poinsettia; [11],25
same,"Plant response rating, Southern Sandbur",southern sandbur; [7],20
same,"Plant response rating, Southern Sandbur",southern sandbur; [8],35
same,"Plant response rating, Southern Sandbur",southern sandbur; [9],75
same,"Plant response rating, Southern Sandbur",southern sandbur; [10],0
same,"Plant response rating, Southern Sandbur",southern sandbur; [11],20
same,"Plant response rating, Lambsquarters",lambsquarters; [7],65
same,"Plant response rating, Lambsquarters",lambsquarters; [8],50
same,"Plant response rating, Lambsquarters",lambsquarters; [9],100
same,"Plant response rating, Lambsquarters",lambsquarters; [10],0
same,"Plant response rating, Lambsquarters",lambsquarters; [11],0
same,"Plant response rating, Goosegrass",goosegrass; [7],35
same,"Plant response rating, Goosegrass",goosegrass; [8],60
same,"Plant response rating, Goosegrass",goosegrass; [9],95
same,"Plant response rating, Goosegrass",goosegrass; [10],0
same,"Plant response rating, Goosegrass",goosegrass; [11],15
CCCc1cc(C(=O)NC(C)C)nn1Cc1cc(C(F)(F)F)nn1C [Compound 201],"Plant response rating, Hairy Beggarticks",hairy beggarticks; [8],20
same,"Plant response rating, Hairy Beggarticks",hairy beggarticks; [9],35
same,"Plant response rating, Hairy Beggarticks",hairy beggarticks; [12],40
same,"Plant response rating, Hairy Beggarticks",hairy beggarticks; [11],0
same,"Plant response rating, Field Bindweed",field bindweed; [13],15
same,"Plant response rating, Field Bindweed",field bindweed; [8],20
same,"Plant response rating, Field Bindweed",field bindweed; [9],75
same,"Plant response rating, Field Bindweed",field bindweed; [12],100
same,"Plant response rating, Field Bindweed",field bindweed; [11],0
same,"Plant response rating, Kochia",kochia; [8],90
same,"Plant response rating, Kochia",kochia; [9],100
same,"Plant response rating, Kochia",kochia; [12],100
same,"Plant response rating, Kochia",kochia; [11],0
same,"Plant response rating, Barnyardgrass",barnyardgrass; [13],0
same,"Plant response rating, Barnyardgrass",barnyardgrass; [8],10
same,"Plant response rating, Barnyardgrass",barnyardgrass; [9],85
same,"Plant response rating, Barnyardgrass",barnyardgrass; [12],95
same,"Plant response rating, Barnyardgrass",barnyardgrass; [11],0
same,"Plant response rating, Wild Poinsettia",wild poinsettia; [8],5
same,"Plant response rating, Wild Poinsettia",wild poinsettia; [9],25
same,"Plant response rating, Wild Poinsettia",wild poinsettia; [12],65
same,"Plant response rating, Wild Poinsettia",wild poinsettia; [11],0
same,"Plant response rating, Southern Sandbur",southern sandbur; [8],0
same,"Plant response rating, Southern Sandbur",southern sandbur; [9],30
same,"Plant response rating, Southern Sandbur",southern sandbur; [12],75
same,"Plant response rating, Southern Sandbur",southern sandbur; [11],0
same,"Plant response rating, Lambsquarters",lambsquarters; [8],70
same,"Plant response rating, Lambsquarters",lambsquarters; [9],100
same,"Plant response rating, Lambsquarters",lambsquarters; [12],100
same,"Plant response rating, Lambsquarters",lambsquarters; [11],0
same,"Plant response rating, Goosegrass",goosegrass; [8],50
same,"Plant response rating, Goosegrass",goosegrass; [9],95
same,"Plant response rating, Goosegrass",goosegrass; [12],95
same,"Plant response rating, Goosegrass",goosegrass; [11],0
CCc1cc(C(=O)NCC(F)(F)F)nn1Cc1ccnc(Br)c1 [Compound 224],"Plant response rating, Hairy Beggarticks",hairy beggarticks; [8],0
same,"Plant response rating, Hairy Beggarticks",hairy beggarticks; [9],0
same,"Plant response rating, Hairy Beggarticks",hairy beggarticks; [12],10
same,"Plant response rating, Field Bindweed",field bindweed; [8],65
same,"Plant response rating, Field Bindweed",field bindweed; [9],90
same,"Plant response rating, Field Bindweed",field bindweed; [12],90
same,"Plant response rating, Kochia",kochia; [8],90
same,"Plant response rating, Kochia",kochia; [9],100
same,"Plant response rating, Kochia",kochia; [12],100
same,"Plant response rating, Barnyardgrass",barnyardgrass; [8],0
same,"Plant response rating, Barnyardgrass",barnyardgrass; [9],40
same,"Plant response rating, Barnyardgrass",barnyardgrass; [12],70
same,"Plant response rating, Wild Poinsettia",wild poinsettia; [8],60
same,"Plant response rating, Wild Poinsettia",wild poinsettia; [9],65
same,"Plant response rating, Wild Poinsettia",wild poinsettia; [12],85
same,"Plant response rating, Southern Sandbur",southern sandbur; [8],5
same,"Plant response rating, Southern Sandbur",southern sandbur; [9],35
same,"Plant response rating, Southern Sandbur",southern sandbur; [12],15
same,"Plant response rating, Lambsquarters",lambsquarters; [8],98
same,"Plant response rating, Lambsquarters",lambsquarters; [9],98
same,"Plant response rating, Lambsquarters",lambsquarters; [12],100
same,"Plant response rating, Goosegrass",goosegrass; [8],35
same,"Plant response rating, Goosegrass",goosegrass; [9],60
same,"Plant response rating, Goosegrass",goosegrass; [12],95
